Several values for one entry are separate records, joined by “and”; a condition that tells them apart may be missing. Identical values can stand only once. Entries after “also recorded” stand apart in the source; their conditions may differ.
How the values were obtained:
[1] = tested on: ultrasound-induced currents in HEK cells; test: Sodium substitution with NMDG on ultrasound-induced currents (patch clamp); format: cell-based; conditions: N=5 cells
From the text: FIGS. 21A-21B are diagrams illustrating exemplary effects of sodium substitution with N-methyl-d-glucamine (NMDG) on ultrasound-induced currents. FIG. 21A illustrates representative examples of ultrasound-induced currents in control solution (Ringers), NMDG-Ringers (without sodium), and in Ringers washout (black, first stimulus; blue, second; red, third). As embodied herein, the cell was held at −90 mV. Ultrasound stimulation parameters were 3.1 MHz, 1.88 MPa, 25 μs, 1 stimulus, 30 s intervals. FIG. 21B illustrates NMDG substitution on ultrasound-induced currents (N=5 cells). As embodied herein, responses to three stimulus presentations per condition were averaged and normalized to the mean amplitude in the control condition for each cell. Cells were held at −90 mV. […] Additionally or alternatively, and as embodied herein, an extracellular cation, such as sodium, can be used to mediate US-induced inward currents. For example and not limitation, as embodied herein, cells were stimulated with US, first in Ringers solution (with sodium), then in an N-methyl-d-glucamine (NMDG)-based Ringer solution (without sodium). NMDG can be utilized at least in part because most mammalian cation channels can be impermeable to this large cation. As embodied herein, each cell was stimulated with US five times at −90 and +30 mV alternatively. The same stimuli were applied 10 minutes following NMDG replacement of sodium and 10 minutes following washout with Ringers (with sodium). […] The first three responses were used to calculate the mean amplitude of the responses in each condition. With reference to FIGS. 21A and 21B, in 4/5 cells, a reduction in US-activated currents with NMDG substitution was shown; however, in most cases, the effect was not reversible, as shown for example in FIG. 21B. This can be due at least in part because NMDG was not effectively washed out of chamber during the washout period (˜10 minutes). Additionally or alternatively, the lack of reversibility can indicate cellular rundown over the course of the stimulations.

[2] = tested on: ultrasound-induced whole-cell currents in HEK cells; test: Ruthenium red on ultrasound-induced whole-cell currents (patch clamp, Chamber B+laser); format: cell-based; conditions: RR 10 μM
From the text: FIGS. 20A-20D are diagrams illustrating ruthenium red (RR) on ultrasound (US)-induced currents. FIG. 20A illustrates representative examples of ultrasound-induced currents before (control), during (ruthenium red), and after (washout) RR treatment (black, first stimulus; blue, second; red, third). As embodied herein, cell was held at −90 mV. Ultrasound stimulation parameters were 3.1 MHz, 1.6 MPa, 25 μs, 1 stimulus, 30 s intervals. FIG. 20B illustrates additional representative examples of ultrasound-induced currents with RR treatment. As embodied herein, cell was held at −90 mV. Ultrasound stimulation parameters were the same as FIG. 20A, except the pressure was 1.27 MPa. FIG. 20C illustrates a summary of the drug effects of ruthenium red on ultrasound-induced currents (N=5 cells). As embodied herein, responses to three stimulus presentations per condition were averaged and normalized to the mean amplitude in the control condition for each cell. Experiments were done at −70 mV or −90 mV holding potential. FIG. 20D illustrates HEK cells grouped into two populations according to ultrasound activation thresholds and ruthenium red sensitivity.
For purpose of illustration and not limitation, as embodied herein, system 1700 can be used to measure the pharmacological profile of the ultrasound-induced currents in HEK cells. Ruthenium red (RR) can be used to block non-selective cation channels, including the mechanically activated ion channels Piezol, Piezo2, as well as some TRP channels (TRPA1, TRPV3, TRPV4, TRPV5, TRPV6). As embodied herein, RR (10 μM) can block ultrasound-induced whole-cell currents in HEK cells. For example and not limitation, as embodied herein, each cell was stimulated with ultrasound five times at both −90 mV (or −70 mV) and +30 mV (or +50 mV) alternatively. The same stimulation was applied 10 minutes after RR wash-in and 10 minutes after the RR washout, respectively. […]

CNC[C@H](O)[C@@H](O)[C@H](O)[C@H](O)CO [NMDG, N-methyl-d-glucamine]
cells showing reduction in US-activated currents with NMDG substitution ([1]; NMDG-Ringers without sodium, 10 minutes after replacement, held at -90 mV): Four and 4/5
cells showing increased response following NMDG replacement ([1]; NMDG-Ringers without sodium, held at -90 mV): one
effect of replacement of sodium with NMDG on ultrasound-induced currents ([1]; un-normalized data, P=0.16 paired t test, -90 mV): did not show significant effect

N.N.N.N.N.N.N.N.N.N.N.N.N.N.[Cl-].[Cl-].[Cl-].[Cl-].[Cl-].[Cl-].[O-2].[O-2].[Ru+3].[Ru+3].[Ru+4] [RR, Ruthenium red]
effect on ultrasound-induced whole-cell currents ([2]; 10 minutes after wash-in, held at -90 mV or -70 mV, N=5 cells): can block; also recorded: varying effects
number of cells showing enhanced US-induced currents in the presence of RR ([2]; N=5 cells analysed): two
number of cells showing reduced US-evoked currents in the presence of RR ([2]; N=5 cells analysed): Three

Source: patent US20200023206A1, “SYSTEMS AND METHODS FOR ULTRASOUND MODULATION OF NEURONS” (THE TRUSTEES OF COLUMBIA UNIVERSITY IN THE CITY OF NEW YORK, priority 2016, published 2020)
